According to patent US20240285627A1, “DRUG COMBINATION OF FAK INHIBITOR AND IMMUNOGENIC CELL DEATH INDUCER AND USE THEREOF” (INXMED (NANJING) CO., LTD., priority 2022, published 2024):
“And” between values parts separate entries of the source, which are not always exact repeats. Equal values may be shown once.

Test system: mouse colon cancer CT26-KRAS G12C allograft tumor
Experiment: In vivo pharmacodynamic study, BALB/c mouse subcutaneous allograft tumor model of CT26-KRAS G12C cells (Example 8)
Description: Species: mice; Strain: BALB/c mice; Age and weight: 6-8 weeks old, weighing: 18-22 g; Gender: female; Quantity: 49 (excluding remaining mice after grouping); Supplier: LINGCHANG BIOTECH.
Mouse colon cancer CT26-KRAS G12C cells were cultured in monolayer in vitro. The culture conditions were RPMI1640 medium with 10% fetal bovine serum, 1% penicillin/streptomycin/amphotericin B, and 37° C. 5% CO2 incubator. Trypsin-EDTA was used twice a week for routine digestion and passage. When the cell saturation was 80%-90% and the number reached the requirements, the cells were collected, counted and inoculated.
0.1 mL (0.3×10^6 cells) of CT26-KRAS G12C cells were subcutaneously inoculated on the right back of each mouse, and grouping and drug administration began when the average tumor volume reached about 55 mm^3.
The diameter of tumor was measured three times a week with vernier caliper. The formula for calculating the tumor volume is: V=0.5×a×b^2, where a and b represent the long and short diameters of the tumor respectively.
The anti-tumor effect of the compound was evaluated by TGI (%) or relative tumor proliferation rate T/C(%). The relative tumor proliferation rate is T/C(%)=TRTV/CRTV×100% (TRTV: RTV in treatment group; CRTV: RTV in negative control group). According to the results of tumor measurement, the relative tumor volume (RTV) was calculated, and the calculation formula is RTV=Vt/V0, where V0 is the average tumor volume measured at the time of grouping and drug administration (i.e., D0), Vt is the average tumor volume measured at a certain time, and data on the same day were used for TRTV and CRTV.
TGI (%) reflects the tumor growth inhibition rate. TGI (%)=[1−(average tumor volume at the end of administration in a certain treatment group-average tumor volume at the beginning of administration in the treatment group)/(average tumor volume at the end of administration in solvent control group-average tumor volume at the beginning of administration in the solvent control group)]×100%.
Statistical analysis included the mean and standard error (SEM) of tumor volume at each time point in each group (see the specific data in Table 7). Based on the tumor volume data on the 19th day after administration, statistical analysis was performed to evaluate the differences between groups. T-test was used to analyze the comparison between two groups, and one-way ANOVA was used to analyze the comparison between three or more groups. If there was significant difference in F value, Games-Howell method was used for the test. If there was no significant difference in F value, Dunnet (2-sided) method was used for analysis. All data were analyzed by SPSS 17.0. P<0.05 was considered to have significant difference.

[1] = Day 19, D-1553 5 mg/kg PO QD, IN10018 25 mg/kg PO QD, INX0082 10 mg/kg IP BIW

## COc1cc(C(=O)NC2CCN(C)CC2)c(F)cc1Nc1ncc(C(F)(F)F)c(Oc2cccc3c2C(=O)N(C)C3)n1 [IN10018]
Day 0, at grouping, Average ± SEM, n = 7
  Tumor volume (Day 0): 55 ± 3 mm^3
[1]
  T/C (%) (Day 19): 74.7%
  TGI (%) (Day 19): 23.4%
Day 19, D-1553 5 mg/kg PO QD, IN10018 25 mg/kg PO QD, INX0082 10 mg/kg IP BIW, Average ± SEM, n = 7
  Tumor volume (Day 19): 1352 mm^3 and 1352 ± 284 mm^3
Day 19, D-1553 5 mg/kg, IN10018 25 mg/kg, INX0082 10 mg/kg
  anti-tumor effect compared with the solvent control group: no anti-tumor effect
